# Tests used:
# in vitro [1] = conditions: both, human; for Concentration (μM) of analyte PEA, 0 min / Concentration (μM) of analyte PEA, 10 min / Concentration (μM) of analyte PEA, 20 min / Concentration (μM) of analyte PEA, 30 min / Concentration (μM) of analyte PEA, 60 min / % Remaining of Initial (n = 1), 0 min / % Remaining of Initial (n = 1), 10 min / % Remaining of Initial (n = 1), 20 min / % Remaining of Initial (n = 1), 30 min / % Remaining of Initial (n = 1), 60 min / Measured concentration of PEA (analyte) / % Remaining of Initial: 1 μM
# Description: (§1) The reaction mixture, minus cofactors, was prepared as described below. The test article was added into the reaction mixture at a final concentration of 1 μM. […] An aliquot of the reaction mixture (without cofactor cocktail) was equilibrated in a shaking water bath at 37° C. for 3 minutes. The reaction was initiated by the addition of cofactor cocktail, and the mixture was incubated in a shaking water bath at 37° C. Aliquots (100 μL) were withdrawn at 0, 10, 20, 30, and 60 minutes. All samples were immediately combined with 400 uL of icecold 50/50 acetonitrile/H2O containing 0.1% formic acid and internal standard to terminate the reaction. The samples were then mixed and centrifuged to precipitate proteins. Calibration standards were prepared in matched matrix. All samples and standards were assayed by LC-MS/MS using electrospray ionization for both the dosed prodrug I-9 and the expected drug (PEA). Analytical conditions are outlined in Appendix 4-1. The test article concentration at each time point was compared to the test article concentration at time 0 to determine the percent remaining at each time point. Half-lives were calculated using GraphPad software, fitting to single-phase exponential decay equation.
# (§2) Reaction mixture, minus cofactors, was prepared as described below. Test article was added into the reaction mixture at a final concentration of 1 μM. […] An aliquot of the reaction mixture (without cofactor cocktail) was equilibrated in a shaking water bath at 37° C. for 3 minutes. The reaction was initiated by the addition of cofactor cocktail, and the mixture was incubated in a shaking water bath at 37° C. Aliquots (100 μL) were withdrawn at 0, 10, 20, 30, and 60 minutes. Test article samples were immediately combined with 300 μL of ice-cold acetonitrile containing 1% formic acid. Control samples were immediately combined with 400 μL of ice-cold 50/50 acetonitrile (ACN)/dH2O containing 0.1% formic acid and internal standard to terminate the reaction. Samples were then mixed and centrifuged to precipitate proteins. Calibration standards were prepared in matched matrix. Samples and standards were assayed by LC-MS/MS using electrospray ionization for both the dosed prodrug and the expected drug (PEA). Analytical conditions are outlined in Appendix 8-1. Test article concentration at each time point was compared to test article concentration at time 0 to determine the percent remaining at each time point. Halflives were calculated using GraphPad software, fitting to a single-phase exponential decay equation.
# as §2, with “for 5” for “for 3”, “minutes. Reaction” for “minutes. The reaction”, “and” for “and the”, “both” for “both the”, “Appendix 10-1.” for “Appendix 8-1.”
# (§3) Reaction mixture, minus cofactors, was prepared as described below.
# in vitro [2] = conditions: male, Sprague-Dawley, rat; for Concentration (μM) of analyte PEA, 0 min / Concentration (μM) of analyte PEA, 10 min / Concentration (μM) of analyte PEA, 20 min / Concentration (μM) of analyte PEA, 30 min / Concentration (μM) of analyte PEA, 60 min / % Remaining of Initial (n = 1), 0 min / % Remaining of Initial (n = 1), 10 min / % Remaining of Initial (n = 1), 20 min / % Remaining of Initial (n = 1), 30 min / % Remaining of Initial (n = 1), 60 min / Measured concentration of PEA (analyte) / % Remaining of Initial: 1 μM
# Description: as §1, §2
# as §2, with “for 5” for “for 3”, “minutes. Reaction” for “minutes. The reaction”, “and” for “and the”, “both” for “both the”, “Appendix 10-1.” for “Appendix 8-1.”
# as §3
# [3] = s9, CLint (mL/min/mg protein), calculated value in parentheses
# [4] = s9, Half-life (min), calculated half-life in parentheses
compound,measurement,setting,value
CCCCC/C=C\C/C=C\CCCCCCCC(=O)OCCNC(=O)CCCCCCCCCCCCCCC [Compound I-6],"Concentration (μM) of analyte PEA, 0 min",in vitro [1]; 0 min,0.0089 µM
same,"Concentration (μM) of analyte PEA, 10 min",in vitro [1]; 10 min,0.023 µM
same,"Concentration (μM) of analyte PEA, 20 min",in vitro [1]; 20 min,0.043 µM
same,"Concentration (μM) of analyte PEA, 30 min",in vitro [1]; 30 min,0.056 µM
same,"Concentration (μM) of analyte PEA, 60 min",in vitro [1]; 60 min,0.072 µM
same,"% Remaining of Initial (n = 1), 0 min","in vitro [1]; s9, 0 h",100%
same,"% Remaining of Initial (n = 1), 10 min","in vitro [1]; s9, 10 min",109%
same,"% Remaining of Initial (n = 1), 20 min","in vitro [1]; s9, 20 min",103%
same,"% Remaining of Initial (n = 1), 30 min","in vitro [1]; s9, 0.5 h",82%
same,"% Remaining of Initial (n = 1), 60 min","in vitro [1]; s9, 1 h",70%
same,microsomal CLint at 1 μM,"in vitro [1]; s9, CLint (mL/min/mg protein)",< 11.6 µL/min/mg
same,microsomal CLint at 1 μM,in vitro [1]; [3],6.82 µL/min/mg
same,half-life at 1 μM,"in vitro [1]; s9, Half-life (min)",> 1 h
same,half-life at 1 μM,in vitro [1]; [4],1.7 h
same,"Concentration (μM) of analyte PEA, 0 min",in vitro [2]; 0 min,0.069 µM
same,"Concentration (μM) of analyte PEA, 10 min",in vitro [2]; 10 min,0.088 µM
same,"Concentration (μM) of analyte PEA, 20 min",in vitro [2]; 20 min,0.094 µM
same,"Concentration (μM) of analyte PEA, 30 min",in vitro [2]; 30 min,0.10 µM
same,"Concentration (μM) of analyte PEA, 60 min",in vitro [2]; 60 min,0.11 µM
same,"% Remaining of Initial (n = 1), 0 min","in vitro [2]; s9, 0 h",100%
same,"% Remaining of Initial (n = 1), 10 min","in vitro [2]; s9, 10 min",78%
same,"% Remaining of Initial (n = 1), 20 min","in vitro [2]; s9, 20 min",92%
same,"% Remaining of Initial (n = 1), 30 min","in vitro [2]; s9, 0.5 h",79%
same,"% Remaining of Initial (n = 1), 60 min","in vitro [2]; s9, 1 h",59%
same,microsomal CLint at 1 μM,"in vitro [2]; s9, CLint (mL/min/mg protein)",< 11.6 µL/min/mg
same,microsomal CLint at 1 μM,in vitro [2]; [3],7.65 µL/min/mg
same,half-life at 1 μM,"in vitro [2]; s9, Half-life (min)",> 1 h
same,half-life at 1 μM,in vitro [2]; [4],1.52 h
CCCCCCCCCCCCCCCC(=O)NCCOC(=O)CCC(=O)OC[C@H]1O[C@@](CO)(O[C@H]2O[C@H](CO)[C@@H](O)[C@H](O)[C@H]2O)[C@@H](O)[C@@H]1O [Compound I-7],"Concentration (μM) of analyte PEA, 0 min",in vitro [1]; 0 min,0.090 µM
same,"Concentration (μM) of analyte PEA, 10 min",in vitro [1]; 10 min,0.46 µM
same,"Concentration (μM) of analyte PEA, 20 min",in vitro [1]; 20 min,0.62 µM
same,"Concentration (μM) of analyte PEA, 30 min",in vitro [1]; 30 min,0.63 µM
same,"Concentration (μM) of analyte PEA, 60 min",in vitro [1]; 60 min,0.48 µM
same,"% Remaining of Initial (n = 1), 0 min","in vitro [1]; s9, 0 h",100%
same,"% Remaining of Initial (n = 1), 10 min","in vitro [1]; s9, 10 min",46%
same,"% Remaining of Initial (n = 1), 20 min","in vitro [1]; s9, 20 min",22%
same,"% Remaining of Initial (n = 1), 30 min","in vitro [1]; s9, 0.5 h",9.8%
same,"% Remaining of Initial (n = 1), 60 min","in vitro [1]; s9, 1 h",3.8%
same,"Concentration (μM) of analyte PEA, 0 min",in vitro [2]; 0 min,0.042 µM
same,"Concentration (μM) of analyte PEA, 10 min",in vitro [2]; 10 min,0.24 µM
same,"Concentration (μM) of analyte PEA, 20 min",in vitro [2]; 20 min,0.35 µM
same,"Concentration (μM) of analyte PEA, 30 min",in vitro [2]; 30 min,0.47 µM
same,"Concentration (μM) of analyte PEA, 60 min",in vitro [2]; 60 min,0.60 µM
same,"% Remaining of Initial (n = 1), 0 min","in vitro [2]; s9, 0 h",100%
same,"% Remaining of Initial (n = 1), 10 min","in vitro [2]; s9, 10 min",60%
same,"% Remaining of Initial (n = 1), 20 min","in vitro [2]; s9, 20 min",37%
same,"% Remaining of Initial (n = 1), 30 min","in vitro [2]; s9, 0.5 h",31%
same,"% Remaining of Initial (n = 1), 60 min","in vitro [2]; s9, 1 h",13%
CCCCCCCCCCCCCCCC(=O)NCCOC(=O)CCC(=O)OC(CO)CO [Compound I-8],Measured concentration of PEA (analyte),in vitro [1]; 0 min,0.021 µM
same,Measured concentration of PEA (analyte),in vitro [1]; 10 min,0.32 µM
same,Measured concentration of PEA (analyte),in vitro [1]; 20 min,0.39 µM
same,Measured concentration of PEA (analyte),in vitro [1]; 30 min,0.38 µM
same,Measured concentration of PEA (analyte),in vitro [1]; 60 min,0.38 µM
same,% Remaining of Initial,"in vitro [1]; s9, 0 h",100%
same,% Remaining of Initial,"in vitro [1]; s9, 10 min",31%
same,% Remaining of Initial,"in vitro [1]; s9, 20 min",7.0%
same,% Remaining of Initial,"in vitro [1]; s9, 0.5 h",1.8%
same,% Remaining of Initial,"in vitro [1]; s9, 1 h",<1.0%
same,microsomal CLint at 1 μM,"in vitro [1]; s9, CLint",> 69.3 µL/min/mg
same,half-life at 1 μM,"in vitro [1]; s9, Half-life",< 0.167 h
same,Measured concentration of PEA (analyte),in vitro [2]; 0 min,0.022 µM
same,Measured concentration of PEA (analyte),in vitro [2]; 10 min,0.22 µM
same,Measured concentration of PEA (analyte),in vitro [2]; 20 min,0.34 µM
same,Measured concentration of PEA (analyte),in vitro [2]; 30 min,0.42 µM
same,Measured concentration of PEA (analyte),in vitro [2]; 60 min,0.45 µM
same,% Remaining of Initial,"in vitro [2]; s9, 0 h",100%
same,% Remaining of Initial,"in vitro [2]; s9, 10 min",58%
same,% Remaining of Initial,"in vitro [2]; s9, 20 min",37%
same,% Remaining of Initial,"in vitro [2]; s9, 0.5 h",22%
same,% Remaining of Initial,"in vitro [2]; s9, 1 h",6.2%
same,microsomal CLint at 1 μM,"in vitro [2]; s9, CLint",50.3 µL/min/mg
same,half-life at 1 μM,"in vitro [2]; s9, Half-life",0.233 h

# Reference: patent US11547681B2, “N-acylethanolamide derivatives and uses thereof” (ELIEM THERAPEUTICS, INC., priority 2016, dated 2023)
